Experimental data from article doi:10.64898/2025.12.15.694443v1 (biorxiv, 2025).

How the values were obtained:
[1] = target: T1, ARAF^SSDD (ARAF^SSDD/MEK1) (Homo sapiens, UniProt P10398, G300S/Y301D/Y302D); assay: TR-FRET MEK phosphorylation assay, bell-shaped fit; format: biochemical
[2] = target: T2, CRAF^SSDD (CRAF^SSDD/MEK1) (Homo sapiens, UniProt P04049, Y340D/Y341D); assay: TR-FRET MEK phosphorylation assay, bell-shaped fit; format: biochemical
[3] = target: T2, CRAF^SSDD (CRAF^SSDD/MEK1); assay: biochemical
[4] = target: T1, ARAF^SSDD (ARAF^SSDD/MEK1); assay: biochemical
[5] = target: T3, CRAF monomer complex (CRAF/MEK1 SASA) (Homo sapiens, UniProt P04049); assay: TR-FRET MEK phosphorylation assay, bell-shaped fit; format: biochemical
T3 sequence (P04049 324-618): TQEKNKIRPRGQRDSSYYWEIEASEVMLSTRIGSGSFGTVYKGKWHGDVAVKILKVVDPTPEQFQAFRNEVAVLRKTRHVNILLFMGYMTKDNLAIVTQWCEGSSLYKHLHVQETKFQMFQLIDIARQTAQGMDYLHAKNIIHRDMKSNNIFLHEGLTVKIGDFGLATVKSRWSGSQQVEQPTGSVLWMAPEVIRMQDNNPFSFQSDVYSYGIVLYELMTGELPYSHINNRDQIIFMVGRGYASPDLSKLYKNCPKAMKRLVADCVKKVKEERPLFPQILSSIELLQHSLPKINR
T3 sequence (Q02750 whole entry S218A/S222A partner): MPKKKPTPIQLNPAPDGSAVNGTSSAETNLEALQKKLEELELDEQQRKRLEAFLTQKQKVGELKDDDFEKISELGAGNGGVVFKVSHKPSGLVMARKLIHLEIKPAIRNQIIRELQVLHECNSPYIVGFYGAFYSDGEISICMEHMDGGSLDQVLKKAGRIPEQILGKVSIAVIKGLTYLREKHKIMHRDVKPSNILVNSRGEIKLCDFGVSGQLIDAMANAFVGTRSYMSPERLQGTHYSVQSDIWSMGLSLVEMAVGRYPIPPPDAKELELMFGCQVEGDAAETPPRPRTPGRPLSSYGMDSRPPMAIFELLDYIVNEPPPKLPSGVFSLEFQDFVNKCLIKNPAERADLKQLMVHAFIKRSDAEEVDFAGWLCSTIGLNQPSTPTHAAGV

[6] = target: BRAF monomer complex (BRAF/MEK1 SASA) (Homo sapiens, UniProt P15056); assay: TR-FRET MEK phosphorylation assay, bell-shaped fit; format: biochemical; conditions: […] enzyme, […] ATP, […] MEK-B, […] DMSO; unreliable
Sequence of BRAF monomer complex (BRAF/MEK1 SASA) (P15056 445-723): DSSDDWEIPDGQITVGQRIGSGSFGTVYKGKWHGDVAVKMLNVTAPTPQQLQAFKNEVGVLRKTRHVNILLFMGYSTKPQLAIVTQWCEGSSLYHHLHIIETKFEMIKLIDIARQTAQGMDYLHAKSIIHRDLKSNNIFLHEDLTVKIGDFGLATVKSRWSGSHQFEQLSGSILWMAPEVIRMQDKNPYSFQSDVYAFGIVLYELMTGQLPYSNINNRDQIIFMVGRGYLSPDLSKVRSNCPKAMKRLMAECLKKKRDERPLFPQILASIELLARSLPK
Sequence of BRAF monomer complex (BRAF/MEK1 SASA) (Q02750 whole entry S218A/S222A partner): as the sequence (Q02750 whole entry S218A/S222A partner) above

[7] = target: T4, ARAF monomer complex (ARAF/MEK1 SASA) (Homo sapiens, UniProt P10398); assay: TR-FRET MEK phosphorylation assay, bell-shaped fit; format: biochemical
T4 sequence (P10398 282-579): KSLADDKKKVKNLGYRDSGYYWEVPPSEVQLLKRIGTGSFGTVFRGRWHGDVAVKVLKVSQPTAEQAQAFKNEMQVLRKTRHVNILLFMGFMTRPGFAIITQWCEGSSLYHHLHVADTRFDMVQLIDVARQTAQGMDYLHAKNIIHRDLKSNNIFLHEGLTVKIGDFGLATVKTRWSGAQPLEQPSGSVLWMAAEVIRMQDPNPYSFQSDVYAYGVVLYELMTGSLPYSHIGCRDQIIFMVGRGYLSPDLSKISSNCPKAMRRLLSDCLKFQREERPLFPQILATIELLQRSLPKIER
T4 sequence (Q02750 whole entry S218A/S222A partner): as the sequence (Q02750 whole entry S218A/S222A partner) above

[8] = target: T4, ARAF monomer complex (ARAF/MEK1 SASA); assay: TR-FRET MEK phosphorylation assay, bell-shaped fit; format: biochemical; remark: listed apart in the source
[9] = target: T3, CRAF monomer complex (CRAF/MEK1 SASA); assay: TR-FRET MEK phosphorylation assay, bell-shaped fit; format: biochemical; remark: listed apart in the source

T1 sequence (P10398 274-606 G300S/Y301D/Y302D): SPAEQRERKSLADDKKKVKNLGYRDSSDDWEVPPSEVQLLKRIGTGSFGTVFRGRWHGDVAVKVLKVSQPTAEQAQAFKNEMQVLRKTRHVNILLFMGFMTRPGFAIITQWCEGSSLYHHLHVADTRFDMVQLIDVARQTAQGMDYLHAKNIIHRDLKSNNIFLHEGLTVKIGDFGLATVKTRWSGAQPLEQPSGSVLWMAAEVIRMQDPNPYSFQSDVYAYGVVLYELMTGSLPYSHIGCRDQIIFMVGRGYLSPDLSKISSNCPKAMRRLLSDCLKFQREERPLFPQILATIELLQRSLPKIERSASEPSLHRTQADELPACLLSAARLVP
T1 sequence (Q02750 whole entry S218A/S222A partner): as the sequence (Q02750 whole entry S218A/S222A partner) above
T2 sequence (P04049 314-618 Y340D/Y341D): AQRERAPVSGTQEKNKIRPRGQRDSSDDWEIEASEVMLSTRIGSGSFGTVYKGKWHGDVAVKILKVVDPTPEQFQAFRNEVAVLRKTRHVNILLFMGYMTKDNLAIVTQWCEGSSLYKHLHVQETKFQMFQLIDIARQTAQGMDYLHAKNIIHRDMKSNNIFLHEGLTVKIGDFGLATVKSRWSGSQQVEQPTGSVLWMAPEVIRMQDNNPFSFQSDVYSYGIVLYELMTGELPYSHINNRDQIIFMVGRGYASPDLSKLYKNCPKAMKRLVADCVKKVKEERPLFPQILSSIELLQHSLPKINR
T2 sequence (Q02750 whole entry S218A/S222A partner): as the sequence (Q02750 whole entry S218A/S222A partner) above

Row | SMILES | IC50 [1] [nM] | IC50 [2] [nM] | AC50 [3] [nM] | AC50 [4] [nM] | IC50 [5] [nM] | IC50 [6] [nM] | AC50 [7] [nM] | IC50 [8] [nM] | AC50 [9] [nM]
1 | Cc1ccc(NC(=O)c2ccnc(C(F)(F)F)c2)cc1-c1cc(OCCO)nc(N2CCOCC2)c1 [Naporafenib] | 673 ± 488 | 79.2 ± 24.1 | 0.06 ± 0.04 | 13.3 ± 5.15 |  |  |  |  | 
2 | Cc1ccc2c(Nc3cccc(Cl)c3F)nccc2c1NC(=O)c1csc2c(N)ncnc12 [Belvarafenib] |  | 34.6 ± 5.15 | 0.07 ± 0.06 |  |  |  |  |  | 
3 | Cc1ccc(NC(=O)c2cccc(C(C)(C)C#N)c2)cc1Nc1ccc2ncn(C)c(=O)c2c1 [AZ628] | 44.4 ± 17.6 |  |  | 1.72 ± 1.24 |  |  |  |  | 
4 | CN(C)CCOc1ccc(-c2nc(-c3ccncc3)c(-c3ccc4c(c3)CC/C4=N\O)[nH]2)cc1 [SB590885] | > 10000 | > 10000 | 3.46 ± 1.49 | 7.62 ± 2.83 | > 10000 | 1915 ± 889 | 11.7 ± 14.3 | > 10000 | 242 ± 19.5
